Measurements: patent publication US20240415819A1, “MACROCYCLIC COMPOUNDS AS PROTEASOME SUBUNIT BETA TYPE-5 INHIBITORS” (Lead Discovery Center GmbH, priority 2021, published 2024)
Where two headings read alike, the source gives them in different places.

Experiments:
[1] = tested on: B-cells isolated from PBMC's; experiment: Chymotrypsin-like ProteasomeGlo assay in B-cells isolated from PBMCs; assay type: cell-based, human
Description: PBMC's will be isolated from human blood followed by B-cell isolation from the PBMC's using the Miltenyi Isolation Kit. • 2. This experiment will use the Chymotrypsin-like ProteasomeGlo read-out to generate IC50's following compound treatment. • 3. Dilute all compounds 1:100 for the assay. • 4. […] Repeat the DMSO transfer with lane 12. • 5. Lane 12 should not be seeded with any cells. Only medium! • 6. For all steps, make sure the samples and reagents remain cool! • 7. While dealing with the buffy coats, be careful to not let any exposed skin to be in direct contact with the blood. […] PBMC isolation followed by B-cell isolation using the Miltenyi Kit • Day 2: B-cell plating, ECHO transfer and ProteasomeGlo assay For the initial steps and to make processing the buffy coats easier, separately process the buffy coats. • a. Cut the tube attached to the buffy coats carefully using a clean, sterile and fresh scalpel. • b. Transfer the blood into 2 individual 50 ml falcons. • c. Add an equal volume of DPBS to the blood in the falcons. • d. Add 20 ml of lymphocyte separating medium to two 50 ml falcons. • e. Carefully pour 15-20 ml of the blood+DPBS mix from step c. onto the lymphocyte separating medium from step d. • f. Centrifuge the falcons with the lymphocyte separating medium+blood mix at 800×g for 15 minutes using a swing-out rotor. • g. Following centrifugation, carefully remove the falcons from the centrifuge. • h. The following layers will be observed: • i. Aspirate the plasma layer off carefully without disturbing the different layers. • j. Remove the cell pellet using a pipette into two fresh 50 ml falcons. • k. Fill the falcons with the cells up to 50 ml with DPBS. • l. Centrifuge the falcons at 250×g for 10 minutes using a swing-out rotor (Brake-off). • m. Aspirate the complete DPBS off the cells without disturbing the cell pellet at the bottom of the falcon. • n. Re-suspend the cell pellet in 10 ml of 1×RBC lysis buffer. • o. Incubate the falcons at room temperature in the dark for 10 minutes. • p. After RBC lysis, centrifuge the tubes at 250×g for 10 minutes using a swing-out rotor (brake-off). • (*Note: If the cell pellet is still red or light red, repeat steps n. to p.!) • q. Re-suspend the cell pellet in DPBS up to 50 ml in the falcon. • r. Centrifuge the falcons at 250×g for 10 minutes using a swing-out rotor (Brake-off). • s. Aspirate the DPBS off the cells without disturbing the cell pellet at the bottom of the falcon. • t. Repeat the wash step as described in steps q. to s. 2× times more (total number of washes is 3×). • u. Aspirate the DPBS completely off the cell pellet after the last wash without disturbing the cell pellet. • v. Re-suspend the cell pellet in 20 ml of PBMC cell medium. • w. […] Re-suspend the pellet in volume of the B-cell isolation buffer calculated as follows: • k. Mix well using a 1 ml pipette and incubate the mix on ice for 20 mins. • l. In the meantime, equilibrate one LS Column as follows: • 1. Insert one LS Column into one slot of the separator as depicted in the pictures above. • 2. Place a 50 ml falcon at the bottom of the LS column to collect the wash flow-through. • 3. Add 3 ml of the B-cell isolation buffer into the column. • 4. Allow the buffer to flow-through making sure that the entire volume passes the column and that the column reservoir is empty before the addition of the cells. • 5. Remove the falcon with the flow-through and discard. • m. Place a fresh 50 ml falcon under the LS Column to collect the untouched B-cells isolated from the PBMCs. • n. Apply the entire volume of the cell+antibody+microbeads mix to the LS Column. • o. Collect the flow-through from each application of the mix into the same 50 ml falcon under the LS Column. • p. Once the complete volume of the cell+antibody+microbead mix has been passed through, proceed to washing of the column. • q. Add 3 ml of the B-cell isolation buffer to the LS Column and allow the buffer to flow-through. […]

[2] = tested on: PBMC; experiment: PBMC IL 17 stim. (Table 4, method not given); assay type: cell-based
[3] = tested on: Karpas cells; experiment: Glo assay of Karpas cells (Table 3; ProteasomeGlo plating scheme); assay type: cell-based; conditions: read-out: Pglo Karpas
Description: Inhibition is indicated as IC50 [nM] (“-”=not measured). […] • Chymotrypsin-Like Cell-Based Proteasome-GloTM Assay (Promega; […]) • Cell culture 384-well plates (Greiner BioOne; 781080) • Dispensing cassette, MultiDrop Standard tube dispensing cassette (Thermo Scientific; 24072670) • DPBS (Pan BioTech; P04-36500) • Cell culture 384-well plates (Greiner BioOne; 781080) • CPD source plate: diamond-shape plate (Labcyte; LP-0200) • Intermediate plate (Labcyte; P-05525) [table] • a. Remove the plates with cells from the incubator. • b. Take all the plates including the compound plate, intermediate plate and Staurosporine plate to the ECHO. • c. Click on “Open” in the ECHO software and select the protocol “QLI5_25ul_30 uM-Grenier”. • d. Follow the on-screen prompts and instructions once you click “Start” to insert the compound plate, intermediate plate and destination plates. • e. Change the final number of destination plates on the program. • f. Follow the on-screen prompts and instructions once you click “Start” to load the Staurosporine and destination plates. • g. Once all the compounds, DMSO and Staurosporine have been transferred, place the destination plates in a wet tissue box. • h. Place the destination plates back into the incubator and incubate at 37° C., 5% CO2 for 105 minutes. • i. Re-seal all the compound+Stauro diamond and intermediate plates and store in the dark. Chymotrypsin like ProteasomeGlo Assay • 1. Thaw the components of the ProteasomeGlo assay at room temperature including the ProteasomeGlo Buffer, the lyophilized Luciferin Detection Reagent and the Suc-LLVY-Glo Substrate. • 2. Reconstitute the Luciferin Detection Reagent in the amber coloured bottle by adding 50 ml of the ProteasomeGlo Buffer. • 3. Vortex the Suc-LLVY-Glo Substrate briefly to reconstitute the Substrate well. • 4. Spin down the Substrate and add 250 μl of the Substrate to the reconstituted Luciferin Detection Reagent from step 2. • 5. Briefly vortex the amber bottle with the mix to prepare a homogenous solution. • 6. Place the mix prepared in step 5 to sit at room temperature for 60 minutes. • 7. After 60 minutes, pipette 25 μl of the mix from step 5 into all wells with the cells. • 8. Shake the plates for 2-5 minutes to ensure the complete mixing of the ProteasomeGlo reagent with the cells. • 9. Leave the plates in the dark for 10-15 minutes. • 10. Measure the luminescence read-out using the Viktor and the protocol “Luminescence_384Well_0.2 sec”. (Note: The Protoeasome-GloTM Reagent (combined Proteasome-GloTM Substrate, Proteasome-GloTM Buffer and Luciferin Detection Reagent) can be stored at 4° C. or -20° C. for 1 month with minimal loss of activity.)

[4] = from Cc1ccc(OCCC2CCCNC2)cc1CNC(=O)[C@H](CCc1ccccc1)NC(=O)[C@H](CC(=O)O)NC(=O)OCc1ccccc1; amide bond; HATU; DMF; 252.0 mM; 25.0 °C; 2 steps
[5] = Homo sapiens, B-cells isolated from PBMC's, read-out: Pglo B-Cell

| Structure (SMILES) | IC50 [1, 5] | further results |
| --- | --- | --- |
| Cc1ccc2cc1CNC(=O)[C@H](CCc1ccccc1)NC(=O)[C@@H](Nc1ncccn1)CC(=O)N1CCCC(CCO2)C1 (stereo partly drawn) [Compound 34, (9S,12S)-5^4-methyl-9-phenethyl-12-(pyrimidin-2-ylamino)-4-oxa-7,10-diaza-1(3,1)] |  | IC50 ([1]; Homo sapiens, read-out: Pglo B-Cell [nM]): < 100 nM |
| Cc1ccc2cc1CNC(=O)[C@H](CCc1ccccc1)NC(=O)[C@@H](NC(=O)c1ncccn1)CC(=O)N1CCCC(CCO2)C1 (stereo partly drawn) [Compound 32, N-((9S,12S)-5^4-methyl-8,11,14-trioxo-9-phenethyl-4-oxa-7,10-diaza-1(3,1)-piperidina-5(1,3)-benzenacyclotetradecaphane-12-yl)pyrimidine-2-carboxamide] | < 100 nM |  |
| Cc1ccc2cc1CNC(=O)[C@H](CCc1ccccc1)NC(=O)[C@@H](NC1COC1)CC(=O)N1CCCC(CCO2)C1 (stereo partly drawn) [Compound 35, (9S,12S)-5^4-methyl-12-(oxetan-3-ylamino)-9-phenethyl-4-oxa-7,10-diaza-1(3,1)-piperidina-5(1,3)-benzenacyclotetradecaphane-8,11,14-trione] | < 100 nM |  |
| Cc1ccc2cc1CNC(=O)C(CCc1ccccc1)NC(=O)C(NC(=O)CCc1ccccc1)CC(=O)N1CCCC(CCO2)C1 [Compound 30, N-((9S,12S)-5^4-methyl-8,11,14-trioxo-9-phenethyl-4-oxa-7,10-diaza-1(3,1)-piperidina-5(1,3)-benzenacyclotetradecaphane-12-yl)-3-phenylpropanamide] |  | IC50 ([1]; B-cells isolated from PBMC's, read-out: Pglo B-Cell): < 100 nM |
| CC(=O)N[C@H]1CC(=O)N2CCCC(CCOc3ccc(C)c(c3)CNC(=O)[C@H](CCc3ccccc3)NC1=O)C2 (stereo partly drawn) [Compound 33, N-((9S,12S)-5^4-methyl-8,11,14-trioxo-9-phenethyl-4-oxa-7,10-diaza-1(3,1)-piperidina-5(1,3)-benzenacyclotetradecaphane-12-yl)acetamide] | < 100 nM |  |
| Cc1ccc2cc1CNC(=O)[C@H](CCc1ccccc1)NC(=O)[C@@H](NC(=O)Cc1ccccc1)CC(=O)N1CCCC(CCO2)C1 (stereo partly drawn) [Compound 29, N-((9S,12S)-5^4-methyl-8,11,14-trioxo-9-phenethyl-4-oxa-7,10-diaza-1(3,1)-piperidina-5(1,3)-benzenacyclotetradecaphane-12-yl)-2-phenylacetamide] | < 100 nM | IC50 [2]: < 100 nM |
| Cc1ccc2cc1CNC(=O)[C@H](CCc1ccccc1)NC(=O)[C@@H](NC(=O)Cc1ccccc1C)CC(=O)N1CCCC(CCO2)C1 (stereo partly drawn) [Compound 373, N-((9S,12S)-5^4-methyl-8,11,14-trioxo-9-phenethyl-4-oxa-7,10-diaza-1(3,1)-piperidina-5(1,3)-benzenacyclotetradecaphane-12-yl)-2-(o-tolyl)acetamide] | < 100 nM | IC50 [3]: < 100 nM |
| Cc1ccc2cc1CNC(=O)[C@H](CCc1ccccc1)NC(=O)[C@@H](NC(=O)c1nc3ccccc3[nH]1)CC(=O)N1CCCC(CCO2)C1 (stereo partly drawn) [Compound 31, N-((9S,12S)-5^4-methyl-8,11,14-trioxo-9-phenethyl-4-oxa-7,10-diaza-1(3,1)-piperidina-5(1,3)-benzenacyclotetradecaphane-12-yl)-1H-benzo[d] imidazole-2-carboxamide] | < 100 nM |  |
| Cc1ccc2cc1CNC(=O)[C@H](CCc1ccccc1)NC(=O)[C@@H](NC(=O)CC(C)(C)C)CC(=O)N1CCCC(CCO2)C1 (stereo partly drawn) [Compound 28, 3,3-dimethyl-N-((9S,12S)-5^4-methyl-8,11,14-trioxo-9-phenethyl-4-oxa-7,10-diaza-1(3,1)-piperidina-5(1,3)-benzenacyclotetradecaphane-12-yl)butanamide] |  | IC50 [3]: < 100 nM |
| Cc1ccc2cc1CNC(=O)[C@H](CCc1ccccc1)NC(=O)[C@@H](NC(=O)C(C)(C)C)CC(=O)N1CCCC(CCO2)C1 (stereo partly drawn) [Compound 27, N-((9S,12S)-5^4-methyl-8,11,14-trioxo-9-phenethyl-4-oxa-7,10-diaza-1(3,1)-piperidina-5(1,3)-benzenacyclotetradecaphane-12-yl)pivalamide] | < 100 nM | IC50 [2]: < 100 nM |
| Cc1ccc2cc1CNC(=O)[C@H](CCc1ccccc1)NC(=O)[C@@H](NC(=O)OCc1ccccc1)CC(=O)N1CCCC(CCO2)C1 (stereo partly drawn) [Compound 7, benzyl ((9S,12S)-5^4-methyl-8,11,14-trioxo-9-phenethyl-4-oxa-7,10-diaza-1(3,1)-piperidina-5(1,3)-benzenacyclotetradecaphane-12-yl)carbamate] |  | ring closure, yield of all isomers [4]: 68.9% |
